Measured values: patent publication US6821959B1, “Antibiotic-natural polysaccharide polymer adducts” (Istituto Biochimico Pavese Pharma S.p.A, priority 1999, dated 2004)
Values after ≈ are worked out from the molar mass of the structure shown.

Experiments:
S. aureus Smith BT13 = assay: Murine model of Staphylococcus aureus subcutaneous abscess; format: in vivo, swiss mice; conditions: for Size scored: abscess size scored 0 to 3 per mouse, group sum; for Total abscesses in 30 mice / Total score (size scored) in 30 mice: cephalosporin, sum of 25, 50, 100 mg/kg groups; for Cured infected mice of 30: parent cephalosporin, 25, 50, 100 mg/kg groups together
Method: 200 Male swiss mice were housed in temperature and humidity controlled animal rooms. The body weight on the day of infection was 25 g (SD 1.2, no 10). Culture media Brain Heart Infusion Broth (Difco) (BHI) and Brain Heart Infusion Agar (Merck) (BHIA) were prepared according to the manufacturer instructions and autoclaved for 15 mins at 121° C. S. aureus Smith BT13 was used at infecting organism. It was stored frozen at −80° C. […] For each test article, a stock solution was prepared by dissolving the drug with 5 ml of water for injectables (5 mg/ml drug concentration for cephalosporins and 3 mg/ml for the adducts). Dilutions 1:2 and 1:4 were prepared using the same vehicles. All solutions were prepared immediately before use. […] At 6 h after inoculation, groups of 10 mice were dosed intraperitoneally with 0.5 ml either of one of the antibiotic solutions, while an untreated control group of 10 mice was injected intraperitoneally with 0.5 ml sterile water. […] On the third day after infection, all mice were sacrificed and autopsied. Presence and size of abscesses were recorded. […] The activity of all compounds was compared by the non parametric Mann-Whitney U test. Statistical significance was for p<0.05.

[1] = tested on: Staphylococcus aureus ATCC 6538 P (strain A); assay: Inhibition halos, diffusion method, strain A; format: cell-based
Source text: (§1) The inhibition halos were obtained through the diffusion method (Farmacopea Ufftclale Italiana, IX ed., page 315), using a culture medium “Mueller-Hinton Medium Difco, with a low thymine and thymidine content, in sterile Petri plates (9 cm in diameter), with Tryptic Soy Broth (Difco).
(§2) For the sensitivity test, both paper filtering disks, imbibed of a fixed quantity of antibiotic and the relevant adduct disks, having the same total dose, but a lower molar ratio of the active principle were prepared.
(§3) To produce a bacterial growth, a strain of Staphylococcus aureus ATCC 6538 P (strain A) and two strains of field Staphylococcus aureus (strains B and C) were used.
(§4) The culture broths were prepared placing a loop of bacterial coating of an agar culture (12 h) in a test tube containing sterile Tryptic Soy Broth (5 ml), successively incubated at 37° C. for 4 hours.
(§5) When necessary, the suspensions have been diluted with sterile water in order to obtain a turbidity similar to the reference standard (0.5 McFarland). The Mueller-Hinton culture medium (150 ml) was sterilized at 121° C. for 15 minutes; a part of it was positioned on sterile Petri plates (9 cm in diameter), was let to solidify, while another part was cooled at approx. 45° C., was inoculated with the bacterial suspensions as above prepared (15 ml) and poured onto the solidified agar surface (10 ml per plate).
(§6) The sown plates were let dry (open) under a laminar flow hood for 15 minutes, then the disks were placed on their surface (four each plate), i.e. the adduct and antibiotic according to the two desired concentrations. The prepared plates (five each tests) were overturned and incubated at 37° C. for 16 hours. After this interval, the inhibition halos were produced. The results are shown in Table 1, where F.U. indicates the dosage recommended by Farmacopea Ufficiale Italiana, IX ed., vol. 1

[2] = tested on: field Staphylococcus aureus (strain B); assay: Inhibition halos, diffusion method, strain B; format: cell-based
Source text: as §1, §2, §3, §4, §5, §6

[3] = tested on: field Staphylococcus aureus (strain C); assay: Inhibition halos, diffusion method, strain C; format: cell-based
Source text: as §1, §2, §3, §4, §5, §6

[4] = tested on: Staphylococcus aureus ATCC 6538 P (strain A); assay: Minimum inhibiting concentration (MIC) in vitro, dilutions in liquid medium, strain A; format: cell-based; conditions: Mueller-Hinton broth pH=7.4, 37° C. 18-24 hours; for MIC: Staphylococcus aureus, ATCC6538
Method: (§7) To produce a bacterial growth, a strain of Staphylococcus aureus ATCC 6538 P (strain A) and two strains of field Staphylococcus aureus (strains B and C) were used. […] A drop of broth (dilution 1:10) was added to all test tubes, which were incubated at 37° C. for 18-24 hours. Then, the test tube with the highest dilution free of any turbidity was considered as the one containing the minimum inhibiting concentration (MIC).

[5] = tested on: field Staphylococcus aureus (strain B); assay: Minimum inhibiting concentration (MIC) in vitro, dilutions in liquid medium, strain B; format: cell-based; conditions: Mueller-Hinton broth pH=7.4, 37° C. 18-24 hours; for MIC: Staphylococcus aureus
Method: as §7

[6] = tested on: field Staphylococcus aureus (strain C); assay: Minimum inhibiting concentration (MIC) in vitro, dilutions in liquid medium, strain C; format: cell-based; conditions: Mueller-Hinton broth pH=7.4, 37° C. 18-24 hours; for MIC: Staphylococcus aureus
Method: as §7

Staphylococcus aureus = assay: In vivo activity in mice infected with Staphylococcus aureus (ulcerative dermatitis), bacteriologic test; parameters: species or system albino mice; conditions: for Bacteriologic test after 5 days of therapy, negative / Bacteriologic test after 5 days of therapy, positive: number of subjects; for % of recovery: subjects with post-infective clinical symptoms, after 5 days of therapy
Method: The antibiotics and the respective adducts were used in solution with distilled water for injectables or with purified water for oral use. Common albino mice (average weight: 28 g), previously infected with Staphylococcus aureus (which is not resistant to the examined antibiotics), that had developed ulcerative dermatitis, with localized abscesses and popodermatitis […] were treated with the prepared solutions every 24 hours for 5 days. After this treatment, a bacteriologic checking through isolation was performed, using pads on the animal skin and inoculating the sample drawn from the […] on the plate.

Solubility in water = format: physicochemical; conditions: of water, pH=4.8
[7] = disk dose 4 μg (adduct: same total dose), 37° C. 16 hours
[8] = disk dose 8 μg (adduct: same total dose)
[9] = infected subjects without post-infective clinical symptoms (NO)
[10] = subjects with post-infective clinical symptoms (YES), treated every 24 hours for 5 days
[11] = disk dose 6 μg (adduct: same total dose)
[12] = disk dose 0.64 μg (F.U.) (adduct: same total dose)
[13] = disk dose 1.56 μg (F.U.) (adduct: same total dose)

Compound | Size scored (S. aureus Smith BT13; cephalosporin 25 mg/kg/dose) | Size scored (S. aureus Smith BT13; cephalosporin 50 mg/kg/dose) | Size scored (S. aureus Smith BT13; cephalosporin 100 mg/kg/dose) | Total abscesses in 30 mice (S. aureus Smith BT13) [absc] | Total score (size scored) in 30 mice (S. aureus Smith BT13) | Cured infected mice of 30 (S. aureus Smith BT13) | Halos on strain A [1, 7] [mm] | Halos on strain B [2, 7] [mm] | Halos on strain C [3, 7] [mm] | MIC [4] [µg/mL] | MIC [5] [µg/mL] | MIC [6] [µg/mL] | Bacteriologic test after 5 days of therapy, negative (Staphylococcus aureus; [9]) | Bacteriologic test after 5 days of therapy, positive (Staphylococcus aureus; [9]) | Bacteriologic test after 5 days of therapy, negative (Staphylococcus aureus; [10]) | Bacteriologic test after 5 days of therapy, positive (Staphylococcus aureus; [10]) | % of recovery (Staphylococcus aureus) [%] | Halos on strain A [1, 12] [mm] | Halos on strain A [1, 13] [mm] | Halos on strain B [2, 12] [mm] | further results
CO/N=C(\C(=O)N[C@@H]1C(=O)N2C(C(=O)O)=C(CSc3nc(=O)c(=O)[nH]n3C)CS[C@H]12)c1csc(N)n1 [Ceftriaxone] | 17 | 14 | 10 | 19 | 41 | 11/30 | – | – | – | – | – | – | – | – | – | – | – | – | – | – | –
CC1(C)S[C@@H]2[C@H](NC(=O)[C@H](N)c3ccc(O)cc3)C(=O)N2[C@H]1C(=O)O [Amoxycillin] | – | – | – | – | – | – | 12.0 | 13.0 | 9.7 | 0.1 (≈ 0.274 µM) | 0.2 (≈ 0.547 µM) | 0.08 (≈ 0.219 µM) | 0 | 0 | 13 | 0 | 100 | – | – | – | Halos on strain A [1, 8]: 13.2 mm; Halos on strain B [2, 8]: 14.0 mm; Halos on strain C [3, 8]: 10.0 mm
CO/N=C(\C(=O)N[C@@H]1C(=O)N2C(C(=O)O)=C(COC(C)=O)CS[C@H]12)c1csc(N)n1 [Cefotaxime] | 11 | 3 | 0 | 6 | 14 | 24/30 | – | – | – | – | – | – | – | – | – | – | – | – | – | – | –
Gentamicin | – | – | – | – | – | – | 12.1 | 11.8 | 12.8 | – | – | – | 0 | 0 | 13 | 0 | 100 | – | – | – | Halos on strain A [1, 11]: 13.1 mm; Halos on strain B [2, 11]: 12.0 mm; Halos on strain C [3, 11]: 13.9 mm; MIC on strain A [4]: 0.125 µg/mL; MIC on strain B [5]: 0.15 µg/mL; MIC on strain C [6]: 0.139 µg/mL
CC1=C(C(=O)O)N2C(=O)[C@@H](NC(=O)[C@H](N)C3=CCC=CC3)[C@H]2SC1 [Cefradin] | – | – | – | – | – | – | – | – | – | 4 (≈ 11.4 µM) | 4.8 (≈ 13.7 µM) | 4.3 (≈ 12.3 µM) | – | – | 15 | 0 | 100 | 10.0 | 12.1 | 7.0 | Halos on strain B [2, 13]: 9.0 mm; Halos on strain C [3, 12]: 9.7 mm; Halos on strain C [3, 13]: 10.0 mm; solubility (Solubility in water): 4000 µg/mL (≈ 11400 µM)
Cc1nnc(SCC2=C(C(=O)O)N3C(=O)[C@@H](NC(=O)Cn4cnnn4)[C@H]3SC2)s1 [Cefazolin] | 17 | 4 | 0 | 8 | 21 | 22 | – | – | – | 0.5 (≈ 1.1 µM) | 0.64 (≈ 1.41 µM) | 0.54 (≈ 1.19 µM) | – | – | 15 | 0 | 100 | 11.0 | 12.2 | 8.5 | Halos on strain B [2, 13]: 10.1 mm; Halos on strain C [3, 12]: 10.1 mm; Halos on strain C [3, 13]: 10.9 mm
